Measurements: article PMC8201324, “Pyrazoles and Pyrazolines as Anti-Inflammatory Agents” (Molecules, 2021)
Where two headings read alike, the source gives them in different places. Marks after values point to notes of the source that are not given here. One block for each compound: values may come before it.

Experiments:
soybean lipoxygenase [1] = target: T1, soybean lipoxygenase (Glycine max, UniProt P08170); experiment: Soybean lipoxygenase inhibition study; type: biochemical; settings: sodium linoleate 0.1 mM; for LOX % Inhibition at 100 µM / inhibition at 100 µM: compound 100 µM; for inhibition at 100 µM: read-out: LOX % Inhibition at 100 µM
T1 construct: purchased Sigma Chemical, Co
T1 sequence (P08170 1-839): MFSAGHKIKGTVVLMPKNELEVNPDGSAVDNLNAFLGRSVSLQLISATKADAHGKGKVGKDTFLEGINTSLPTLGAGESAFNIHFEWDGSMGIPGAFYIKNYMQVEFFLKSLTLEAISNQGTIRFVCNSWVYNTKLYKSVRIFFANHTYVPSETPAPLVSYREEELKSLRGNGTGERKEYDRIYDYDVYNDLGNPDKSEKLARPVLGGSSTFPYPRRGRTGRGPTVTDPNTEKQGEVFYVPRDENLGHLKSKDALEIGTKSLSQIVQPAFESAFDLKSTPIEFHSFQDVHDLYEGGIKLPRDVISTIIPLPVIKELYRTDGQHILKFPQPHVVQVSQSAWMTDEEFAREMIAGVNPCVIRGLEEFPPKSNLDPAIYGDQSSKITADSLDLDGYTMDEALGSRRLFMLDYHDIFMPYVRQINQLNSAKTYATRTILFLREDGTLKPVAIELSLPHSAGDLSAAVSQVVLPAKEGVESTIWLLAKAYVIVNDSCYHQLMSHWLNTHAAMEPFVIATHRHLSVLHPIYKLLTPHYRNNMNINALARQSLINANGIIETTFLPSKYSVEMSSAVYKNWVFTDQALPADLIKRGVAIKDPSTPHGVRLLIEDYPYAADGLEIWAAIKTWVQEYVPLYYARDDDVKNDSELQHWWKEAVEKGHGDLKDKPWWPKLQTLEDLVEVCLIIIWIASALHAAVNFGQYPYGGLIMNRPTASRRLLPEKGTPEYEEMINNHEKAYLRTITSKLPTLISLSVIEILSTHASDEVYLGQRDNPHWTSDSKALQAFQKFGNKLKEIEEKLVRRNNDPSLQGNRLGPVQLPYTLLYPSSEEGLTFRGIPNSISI
Procedure: Lipoxygenase (LOX) is the key enzyme implicated in membrane lipid peroxidation by forming hydroperoxides, thus it is considered a target for inflammatory diseases. […] For the in vitro study, soybean lipoxygenase was used, based on the homology to mammalian lipoxygenase. […] A stock solution (1% DMSO in the appropriate buffer with the tested compound diluted under sonication) was prepared for the in vitro assays from which several dilutions were made with the appropriate buffer. […] The stock solutions of the compounds were incubated with sodium linoleate (0.1 mM) and 0.2 mL of soybean lipoxygenase solution (1/9 × 10^-4 w/v in saline) at room temperature. In vitro test was performed as previously published.

[2] = Reducing activity of the stable radical DPPH; type: biochemical
Procedure: The novel derivatives were studied for their interaction with the stable 2,2-diphenyl-1-picrylhydrazyl free radical (DPPH) at concentrations 50 µM, 100 µM, 200 µM and after 20 and 60 min (Table 3). This assay is based on the reduction of the DPPH by transferring an electron from the antioxidant. […] However, it seems that the interaction is dependent on the concentration and on the reaction time. From this point of view, it can be concluded that the acetyl pyrazolyl derivatives 2c and 2f seem to present the highest scavenging activities. An increase in concentration favors the activity. […] As for compounds 2a, 2b, 2c and 2f, activity seems to be time dependent at 200 µM. […] The presence of a chlorine group in 2e pyrazoline leads to an activity increase (compared to 2d) in concentration 200 µM. The acetyl derivative 2f presents better activity than 2b at 200 µM.
A stock solution (1% DMSO in the appropriate buffer with the tested compound diluted under sonication) was prepared for the in vitro assays from which several dilutions were made with the appropriate buffer. The in vitro experiments were performed at least in triplicate, and the standard deviation of absorbance was less than 10% of the mean.
A stock solution (10 mM) of the novel derivatives in DMSO was prepared and an equal volume of it was added to a solution of DPPH in absolute ethanol to reach final concentrations 50, 100 µM and 200 µM. The absorbance was recorded at 517 nm, after 20 and 60 min at room temperature (Table 3).

[3] = system: acetic acid-induced writhing; experiment: Anti-nociception writhing test (acetic acid); type: in vivo, Fisher 344 rats; settings: 0.0057 mmol/kg body weight i.p., 0.6% acetic acid after 30 min
Source text: The acetic acid-induced writhing test is a quick, simple and reproducible method, despite the fact that it lacks specialization. […] The animals (Fisher 344 rats), were housed under standard conditions, and received a diet of commercial food pellets and water ad libitum during the maintenance, but were entirely fasted during the experiment period. Both sexes were used, while pregnant females were excluded. Each group was composed of 6–15 animals. Our studies were in accordance with recognized guidelines on animal experimentation (guidelines for the care and use of laboratory animals published by the Greek Government 160/1991, based on EU regulations 86/609). Rats were kept in the Centre of the School of Veterinary Medicine (EL54 BIO42), Aristotle University of Thessaloniki, which is registered by the official state veterinary authorities (presidential degree 56/2013, in harmony with the European Directive 2010/63/EEC). The experimental protocols were approved by the Animal Ethics Committee of the Prefecture of Central Macedonia. For the study of the analgesic activity of the tested compounds, pain is provoked with acetic acid. Animals were divided in three five-membered groups, according to our reported method. After treatment with the tested compounds (0.0057 mmol/kg body weight; intraperitoneally) in the first group, the second group was used as a positive control (aspirin; 0.0057 mmol/kg body weight i.p.) and the third group served as the control in which saline was administered (negative control). After 30 min, 0.6% acetic acid (1 mL/kg body weight) was injected i.p. The number of writhes was recorded for each animal every 5 min during a subsequent 30 min period (Table 6).

soybean lipoxygenase [4] = target: T1, soybean lipoxygenase; experiment: Soybean lipoxygenase inhibition study; type: biochemical

LOX % Inhibition at 100 µM (soybean lipoxygenase [1]): 42%
Compound: 1-(5-(4-((4-bromobenzyl)oxy)phenyl)-3-(thiophen-2-yl)-1H-pyrazol-1-yl)ethan-1-one [Compound 2c]
RA% 50 µM 20 min [2]: 17.1%
RA% 50 µM 60 min [2]: 22.4%
RA% 100 µM 20 min [2]: 41.9%
RA% 100 µM 60 min [2]: 44.0%
RA% 200 µM 20 min [2]: 49.4%
RA% 200 µM 60 min [2]: 59.2%

Compound: 5-(4-((4-bromobenzyl)oxy)phenyl)-3-(4-chlorophenyl)-4,5-dihydro-1H-pyrazole [Compound 2e]
LOX % Inhibition at 100 µM (soybean lipoxygenase [1]): 16%
Writhing Inhibition (%) [3]: 66.1 * %
RA% 50 µM 20 min [2]: 9.5%
RA% 50 µM 60 min [2]: 13.0%
RA% 100 µM 20 min [2]: 14.8%
RA% 100 µM 60 min [2]: 17.8%
RA% 200 µM 20 min [2]: 25.6%
RA% 200 µM 60 min [2]: 30.1%

inhibition at 100 µM (soybean lipoxygenase [1]): 35%
Compound: c1ccc(C2=NNC(c3cccc4ccccc34)C2)cc1 (stereo not shown) [Compound 2a, 5-(naphthalen-1-yl)-3-phenyl-4,5-dihydro-1H-pyrazole]
RA% 50 µM 20 min [2]: 15.0%
RA% 50 µM 60 min [2]: 20.0%
RA% 100 µM 20 min [2]: 22.9%
RA% 100 µM 60 min [2]: 32.0%
RA% 200 µM 20 min [2]: 37.2%
RA% 200 µM 60 min [2]: 49.3%

inhibition at 100 µM (soybean lipoxygenase [1]): 17%
Compound: Clc1ccc(C2=NNC(c3ccc4[nH]ccc4c3)C2)cc1 (stereo not shown) [Compound 2b, 5-(3-(4-chlorophenyl)-4,5-dihydro-1H-pyrazol-5-yl)-1H-indole]
RA% 50 µM 20 min [2]: 19.3%
RA% 50 µM 60 min [2]: 25.0%
RA% 100 µM 20 min [2]: 26.1%
RA% 100 µM 60 min [2]: 33.6%
RA% 200 µM 20 min [2]: 34.9%
RA% 200 µM 60 min [2]: 44.4%

Compound: Brc1ccc(COc2ccc(C3CC(c4ccccc4)=NN3)cc2)cc1 (stereo not shown) [Compound 2d, 5-(4-((4-bromobenzyl)oxy)phenyl)-3-phenyl-4,5-dihydro-1H-pyrazole]
inhibition at 100 µM (soybean lipoxygenase [1]): 13%
Writhing Inhibition (%) [3]: 54.2 * %
RA% 50 µM 20 min [2]: 6.3%
RA% 50 µM 60 min [2]: 9.5%
RA% 100 µM 20 min [2]: 19.4%
RA% 100 µM 60 min [2]: 37.4%
RA% 200 µM 20 min [2]: 9.4%
RA% 200 µM 60 min [2]: 14.9%

inhibition at 100 µM (soybean lipoxygenase [1]): 3%
Compound: CC(=O)n1nc(-c2ccccc2)cc1-c1ccc2[nH]ccc2c1 [Compound 2f, 1-(5-(1H-indol-5-yl)-3-phenyl-1H-pyrazol-1-yl)ethan-1-one]
RA% 50 µM 20 min [2]: 21.0%
RA% 50 µM 60 min [2]: 24.7%
RA% 100 µM 20 min [2]: 34.7%
RA% 100 µM 60 min [2]: 38.8%
RA% 200 µM 20 min [2]: 50.1%
RA% 200 µM 60 min [2]: 59.5%

inhibition at 100 µM (soybean lipoxygenase [1]): 60%
IC50 (soybean lipoxygenase [1]; soybean lipoxygenase, read-out: LOX IC50): 80 µM
inhibition at 100 µM (soybean lipoxygenase [4]; compound 100 µM, linoleic acid sodium salt 50 µM, read-out: LOX % Inhibition 100 µM, LLA 50 µM): 89.6%
type of LOX inhibition (soybean lipoxygenase [4]; varying sodium linoleate concentration, enzyme and compound kept stable): competitive inhibition
Compound: CC(=O)n1nc(-c2ccc(Cl)cc2)cc1-c1cccc2ccccc12 [Compound 2g, 1-(3-(4-chlorophenyl)-5-(naphthalen-1-yl)-1H-pyrazol-1-yl)ethan-1-one]
RA% 50 µM 20 min [2]: 9.0%
RA% 50 µM 60 min [2]: 12.7%
RA% 100 µM 20 min [2]: 11.2%
RA% 100 µM 60 min [2]: 13.6%
RA% 200 µM 20 min [2]: 22.5%
RA% 200 µM 60 min [2]: 27.7%

inhibition at 100 µM (soybean lipoxygenase [1]): 26%
Compound: CC(=O)n1nc(-c2ccccc2)cc1-c1cccc(Oc2ccccc2)c1 [Compound 2h, 1-(5-(3-phenoxyphenyl)-3-phenyl-1H-pyrazol-1-yl)ethan-1-one]
RA% 50 µM 20 min [2]: 6.7%
RA% 50 µM 60 min [2]: 9.5%
RA% 100 µM 20 min [2]: 7.8%
RA% 100 µM 60 min [2]: 9.6%
RA% 200 µM 20 min [2]: 17.2%
RA% 200 µM 60 min [2]: 20.9%
